Measurements taken from patent US9101582B2, “Use of a pneumococcal P4 peptide for enhancing opsonophagocytosis in response to a pathogen” (priority 2008, dated 2015).
Several values for one entry are separate records, joined by “and”; a condition that tells them apart may be missing. Equal values may be shown once. Entries after “also recorded” stand apart in the source; their conditions may differ. Ends that are not written are not given here.

Assays:
[1] = tested on: S. pneumoniae serotype 3 (WU2); experiment: Combination therapy of moribund mice after intranasal S. pneumoniae WU2 infection (Example 2); assay type: in vivo
Text: S. pneumoniae serotype 3 (WU2) was used for mouse infections as described previously (Rajam et al. J. Infect. Dis. 199:1233-1238, 1999). P4, a 28-amino-acid peptide, was synthesized, purified, and prepared for combination therapy as described previously (Carlone et al. Microb. Pathog. 44:186-196, 2008). Gamma globulin (intravenous immunoglobulin [IVIG]; Gamunex, Telecris, N.C.) was used as a source of Pnc serotype-specific polysaccharide antibodies (Frasch and Scott Clin. Diagn. Lab. Immunol. 11:1158-1164, 2004; Rajam et al., Clin. Vaccine Immunol. 14:1223-1227, 2007; Romero-Steiner et al., Clin. Diagn. Lab. Immunol. 10:1019-1024, 2003). Ceftriaxone (catalog no. C5793; Sigma-Aldrich, St. Louis, Mo.), an expanded-spectrum cephalosporin, was dissolved in phosphate-buffered saline (0.01 M), and working dilutions in phosphate-buffered saline were made for mouse inoculations.
Female Swiss Webster mice (Charles River Laboratories, Wilmington, Mass.) 6 to 10 weeks of age were used in this study. All experiments were approved by the Institutional Animal Care and Use Committee (IACUC) and conducted according to the institutional ethical guidelines for animal experiments and safety guidelines.
Intranasal infections of mice with a Pnc isolate were carried out by adopting the methodology described by Briles et al., 2003. Briefly, a mouse was injected intraperitoneally (ip) with 20 μl of 100-mg/ml ketamine hydrochloride (KETASET®; Wyeth). Once the mouse was lethargic, 40 μl of the bacterial suspension (˜2.1×10^7 cells/mouse) was dispensed drop by drop close to the nose, allowing the mouse to inhale the bacteria. Scruffiness combined with a hunched posture or lethargy indicated moribundity in a mouse. […] Control groups included untreated animals or animals that received P4 alone, IVIG alone, or ceftriaxone (at 0.3, 3.0, 300, or 3,000 μg/mouse) alone. Treatment groups included mice that received a single inoculum containing P4 and IVIG with or without ceftriaxone at one of three different doses (0.3, 3.0, or 300 μg/mouse).
Mice were restrained using a Tailveiner restrainer (model no. TV-150; Braintree Scientific, Braintree, Mass.). IVIG and/or P4 was administered intravenously (iv) using a 25-gauge needle and a 1-ml syringe. IVIG (100-μl volume/mouse) was administered first, followed 20 min later by P4 (50 μg in a 100-μl volume/mouse). Ceftriaxone was administered (ip in a 100-μl volume/mouse) 30 min after P4 administration. Animals were monitored daily for 7 days or (in the repeat infection study) 36 days post treatment for clinical signs of disease progression. For repeat therapy, mice rescued with P4 combination therapy were reinfected on day 28 post treatment and treated again with P4 combination therapy.
The in vivo combination therapy experiments were repeated three to five times, and repeat therapy was performed once. The numbers of moribund animals up to 7 and 36 days after the combination and repeat therapies, respectively, were recorded, and the data were analyzed for significant differences among various groups by using the paired two-sample t test for means in MICROSOFT® Excel 2003.

HL-60-derived monocytes = experiment: fOPA, OPU of N. meningitidis A Ps-coated beads; assay type: cell-based, human; settings: P4 100 μg/mL; QC268 serum; FIG. 2C
Protocol: (§1) The flow cytometric opsonophagocytic assay (fOPA) was performed with HL-60 cells differentiated into granulocytes or monocytes as described by Martinez et al., Clin Diagn Lab Immunol 9:485-8, 2002; Martinez et al., Clin Vaccine Immunol 13:459-66, 2006; and Mezzatesta et al., Infect Immun 42:99-105, 1983. In-house quality-control sera (QC5 and QC268) were used as a source for serotypespecific antibodies against the capsular Ps of S. pneumoniae serotype 14 and Neisseria meningitides A, respectively. Polystyrene beads were covalently linked to S. pneumoniae and non-S. pneumoniae antigens, as described by Martinez et al., Clin Diagn Lab Immunol 9:485-8, 2002; and Martinez et al., Clin Vaccine Immunol 13:459-66, 2006 and used in fOPA.

[2] = tested on: HL-60-derived granulocytes; experiment: Flow cytometric opsonophagocytic assay (fOPA), respiratory burst with OXYBURST-labeled S. pneumoniae serotype 23F; assay type: cell-based, human; settings: P4 100 μg/mL; QC2 serum; titrated out with antibody dilution; FIG. 2A
Protocol: as §1
A loopful of the frozen stock of S. pneumoniae serotype 23F was grown overnight (37° C. in 5% CO2) in Todd-Hewitt broth (Difco) supplemented with 0.5% yeast extract (THYE). A loopful of the overnight culture was transferred to 1 mL of fresh THYE broth and incubated for 3 hours. From this, 200 μL was transferred to 5 mL of THYE broth and incubated for 3 hours, after which 1 mL was transferred to 5 mL of THYE broth and incubated for another 3 hours (all incubations were done at 37° C. in 5% CO2). After the third passage, the bacterial suspension was centrifuged at 6000 g for 10 minutes and resuspended in 1 mL of 0.01 mol/L phosphate buffered saline (PBS). […]

anti-P4 IgG = settings: serum 14 days post infection from mice treated with P4 therapy
Protocol: Blood samples from mice treated with P4 therapy were collected 14 days post infection, and the serum fractions were separated by adopting the methodology described previously (Rajam, 2009). An enzyme-linked immunosorbent assay (ELISA) was performed to detect and quantify antiprotein immunoglobulin G (IgG) as described previously, with minor modifications (Scott, et al., Clin. Diagn. Lab. Immunol. 12:1195-1201, 2005; Scott et al., J. Infect. Dis. 186:220-226, 2002). Briefly, ELISA plates were coated with the P4 peptide at a 5-μg/ml concentration. Plates were incubated at 4° C. overnight and used to detect and quantify anti-P4 IgG in mouse sera. Horseradish peroxidase-labeled anti-mouse IgG (Sigma, St. Louis, Mo.) was used as the reporter antibody. SUREBLUE® 3,3′,5,5′-tetramethylbenzidine (KPL, Gaithersburg, Md.) was used as the substrate, and 1 N HCl was used as the stop solution. Samples were assayed in triplicate, and suitable positive and negative controls were included.

[3] = tested on: S. pneumoniae serotype 3 (WU2); settings: P4 100 μg/ml; PMNs from infected (1 and 2 hours postinfection) or uninfected mice; gamma globulin as IgG source; P<0.05
Protocol: We used the in vitro opsonophagocytic killing assay (OPKA) as described previously by Romero-Steiner et al. (Romero-Steiner et al., Clin. Diagn. Lab. Immunol. 4:415-422, 1997) with polymorphonuclear leukocytes (PMNs) isolated from mice (Devi et al., Indian J. Physiol. Pharmacol. 39:354-360, 1995). Peripheral blood samples were collected from mice 1 and 2 hours postinfection (with Pnc WU2) or from uninfected controls as described previously (Frasch and Scott, 2004), and the buffy coat fractions were separated (Devi et al, 1995) and used as the source of effector cells. Gamma globulin (Gamunex, Telecris, N.C.) was used as the serotype-specific antibody source. S. pneumoniae serotype 3 (WU2) was propagated, stored, and used in this assay as described previously (Rajam et al., 2007; Romero-Steiner, 2006). A 100-μg/ml P4 peptide solution was added to the OPKA mixture at the preopsonization stage, and the control wells received diethyl pyrocarbonate water.

P4 toxicity test in mice = assay type: in vivo; settings: ip, 1, 10, 100 and 1000 μg/mouse; 10-week-old ND4-SW mice
Protocol: At 72 hours, all the infected mice were moribund (n=60; moribund score, 2-3 [see below]). At 72 and 96 hours after infection, 40 animals were passively immunized with gamma globulin (100 μL/mouse; iv, n=20; ip, n=20). After a time lapse of 20 minutes, allowing for possible preopsonization in vivo, 20 of the passively immunized mice (intravenous (iv), n=10; intraperitoneal (ip), n=10) received P4 (100 μg; 100 μL/mouse) through an iv or ip route. Control mice were given DEPC water (100 μL) or P4 alone. Initially, P4 peptide was tested for toxicity in mice at 1, 10, 100, and 1000 μg. P4 was injected ip into 10-week-old ND4-SW mice at a constant volume of 100 μL.

[4] = tested on: S. pneumoniae serotype 3 (WU2); experiment: Opsonophagocytic killing (OPK) assay with HL-60 cells differentiated into granulocytes; assay type: cell-based, Streptococcus pneumoniae
[5] = tested on: S. pneumoniae serotype 3 (WU2); experiment: Test for bacteremia in blood of treated mice; assay type: in vivo; settings: P4-treated mice
Protocol: Blood samples from P4-treated and untreated mice were collected (Rajam et al., J. Infect. Dis. 199:1233-1238, 2009), and […] aliquots of the heparinized blood samples were spread onto plates of blood agar (blood agar base plus 5% sheep blood plus gentamicin [2.5 mg/liter]). The plates were incubated for 18 to 24 hours at 37° C. in 5% CO^2, and bacteria were counted.

[6] = tested on: freshly isolated granulocytes from human blood; experiment: fOPA, opsonophagocytic uptake (OPU) of S. pneumoniae serotype 14 Ps-coated beads; assay type: cell-based; settings: P4 100 μg/mL
Protocol: as §1
Heparinized venous blood was obtained from the Emory Blood Donor Services. A leukocyte separation kit, HISTOPAQUE®-1119 (Sigma), was used to separate granulocytes from the blood, in accordance with the method recommended by the manufacturer.

With CO/N=C(\C(=O)N[C@@H]1C(=O)N2C(C(=O)O)=C(CSc3nc(=O)c(=O)[nH]n3C)CS[C@H]12)c1csc(N)n1 [ceftriaxone, Ceftriaxone] the “protection (survival comparable to untreated controls)” value (“protection” below) ([1]; ceftriaxone alone 0.3 μg ip) was “poor protection”, the “protection” value ([1]; ceftriaxone alone 3.0 μg ip) was “poor protection” and the “protection” value ([1]; ceftriaxone alone 300 μg ip) was “poor protection”. It also gave a survival rate ([1]; ceftriaxone alone 3,000 μg ip, 168 hours) of 90%.

For LFVESSVKRRPMKTVSQDTNIPIYAQIF [P4], the “protection” value ([1]; P4 alone) was “poor protection”, the “OPU of N. meningitidis A Ps-coated beads” value (HL-60-derived monocytes) was “increase in the OPU; also recorded: increased the OPU” and the “intraphagocytic respiratory burst (OXYBURST signal)” value [2] was “increase in the intraphagocytic respiratory burst; also recorded: increased the respiratory burst”. The “anti-P4 IgG in serum” value (anti-P4 IgG) was “negative”, the “increase in opsonophagocytic killing over control” value [3] was > 80% and 80% and the “toxic effect on mice” value (P4 toxicity test in mice) was “no apparent toxic effect”. For the same molecule, the “P4-mediated change in OPK over control” value ([4]; P4 5 μg/mL, gamma globulin 1:8, FIG. 1C) was “no change in OPK”, the “P4-mediated increase in OPK over control” value ([4]; P4 10 μg/mL, gamma globulin 1:8, FIG. 1C) was 8% and the “P4-mediated increase in OPK over control” value ([4]; P4 50 μg/mL, gamma globulin 1:8, FIG. 1C) was 30%. For the same molecule, the “P4-mediated increase in OPK over control” value ([4]; P4 100 μg/mL, gamma globulin 1:8, FIG. 1C) was 35%, the “P4-mediated increase in OPK over control” value ([4]; absence of a complement source (heat-inactivated complement), FIG. 1B) was “no increase in OPK” and the “P4-mediated increase in OPK over control” value ([4]; gamma globulin 1:8 dilution, P4 100 μg/mL, FIG. 1A) was 35%. For the same molecule, the “P4-mediated increase in OPK over control” value ([4]; gamma globulin 1:32 dilution, FIG. 1A) was “paralleling the results obtained for controls”, the “bacteremia in blood samples” value [5] was “no bacteremia” and the “increase in OPU of S. pneumoniae serotype 14 Ps beads” value (“increase in OPU” for short) ([6]; antibody dilution 1:64) was 52%. The “increase in OPU” value ([6]; antibody dilution 1:128) was 48%, the “increase in OPU” value ([6]; antibody dilution 1:256) was 25% and the “increase in OPU” value ([6]; antibody dilution 1:512) was 5%. For the same molecule, the “OPU of S. pneumoniae serotype 14 Ps-coated beads (in words)” value ([6]; in the presence of QC2, FIG. 2B legend) was “increased the OPU” and the “increase in OPU” value ([6]; overall figure, FIG. 2B) was 50%.
